In US8916526B2, “Flavanone derivative” (National University Corporation Okayama University, priority 2009, dated 2014):
In brackets after ≈: the same amount, converted by molar mass.

Assays:
[1] = test system: Methicillin-resistant S. aureus COL; test: In vitro infectivity assay (MIC), Exp. Ex. 2-1; assay type: cell-based, Staphylococcus aureus; details: Staphylococcus aureus, MRSA; Gram-positive; microdilution, MIC after 24 h
[2] = test system: Methicillin-resistant S. aureus OM584; test: In vitro infectivity assay (MIC), Exp. Ex. 2-1; assay type: cell-based, Staphylococcus aureus; details: Staphylococcus aureus, MRSA; Gram-positive; microdilution, MIC after 24 h; read-out: MIC MRSA OM584
Method in brief: (§1)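 CLSI broth dilution; Mueller-Hinton + 0.85% NaCl; inoculum ~10^5 CUF/[…]; 35° C, 24 h; MIC read, n=3.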

[3] = test system: Methicillin-resistant S. aureus OM481; test: In vitro infectivity assay (MIC), Exp. Ex. 2-1; assay type: cell-based, Staphylococcus aureus; details: Staphylococcus aureus, MRSA; Gram-positive; microdilution, MIC after 24 h; read-out: MIC MRSA OM481
Method in brief: as §1

[4] = test system: Methicillin sensitive S. aureus 209P; test: In vitro infectivity assay (MIC), Exp. Ex. 2-1; assay type: cell-based, Staphylococcus aureus; details: Staphylococcus aureus, 209P / MSSA; Gram-positive; microdilution, MIC after 24 h; read-out: MIC MSSA 209P
Method in brief: as §1

[5] = test system: Methicillin-resistant S. aureus N315; test: In vitro infectivity assay (MIC), Exp. Ex. 2-1; assay type: cell-based, Staphylococcus aureus; details: Staphylococcus aureus, MRSA; Gram-positive; microdilution, MIC after 24 h; read-out: MIC MRSA N315
Method in brief: as §1

[6] = test system: Vancomycin intermediate-resistant Staphylococcus aureus Mu50; test: In vitro infectivity assay (MIC), Exp. Ex. 2-1; assay type: cell-based; details: Staphylococcus aureus, VISA; Gram-positive; microdilution, MIC after 24 h; read-out: MIC VISA Mu50
Method in brief: as §1

[7] = test system: Vancomycin-resistant enterococci NCTC 12201; test: In vitro infectivity assay (MIC), Exp. Ex. 2-1; assay type: cell-based; details: Enterococcus, NCTC 12201 / VRE; Gram-positive; microdilution, MIC after 24 h; read-out: MIC VRE NCTC 12201
Method in brief: as §1

[8] = test system: Vancomycin-resistant enterococci FN-1; test: In vitro infectivity assay (MIC), Exp. Ex. 2-1; assay type: cell-based; details: Enterococcus, VRE; Gram-positive; microdilution, MIC after 24 h; read-out: MIC VRE FN-1
Method in brief: as §1

[9] = target: T1, E. coli DNA gyrase (Escherichia coli, UniProt P0AES4+P0AES6); test: DNA gyrase inhibition (supercoiling kit), Exp. Ex. 2-2; assay type: biochemical
T1 construct: purchased John Innes Enterprises #K0001
Method in brief: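 Supercoiling of relaxed pBR322 DNA ([…]) by 1 U E. coli gyrase, 37° C for 30 minutes, in 35 mM Tris-HCl pH 7.5 with 1 mM ATP, 4 mM MgCl2, 24 mM KCl, spermidine and DTT. Products resolved by electrophoresis to derive IC50.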

[10] = target: T2, Escherichia coli Topoisomerase IV (Escherichia coli, UniProt P0AFI2+P20083); test: Topoisomerase IV inhibition (decatenation kit), Exp. Ex. 2-3; assay type: biochemical; details: decatenation of kDNA, 37° C., 30 minutes; read-out: IC50 (E. coli topoisomerase IV inhibitions)
T2 construct: purchased John Innes Enterprises
Method in brief: (§2)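 Decatenation of 200 ng kinetoplast DNA by 1 unit enzyme, 30 min at 37 °C. S. aureus: 50 mM Tris-HCl pH 7.5, 350 mM potassium glutamate, 1.5 mM ATP; E. coli: 50 mM HEPES-KOH pH 7.6, 100 mM potassium glutamate, 1 mM ATP. Products resolved on 1.0% agarose in TAE.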

[11] = target: T3, Staphylococcus aureus Topoisomerase IV (Staphylococcus aureus, UniProt P0C1S7+P0C1U9); test: as above; assay type: biochemical
T3 construct: purchased John Innes Enterprises
Method in brief: as §2

[12] = test system: Escherichia coli K-12; test: Antibacterial activity (MIC) against Gram-negative strains, microdilution; assay type: cell-based; details: K12, MIC after 24 h, read-out: MIC (Gram-nagative) K-12
Method in brief: (§3)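 CLSI broth microdilution in Mueller-Hinton broth with 0.85% NaCl, inoculum about 10^5 […]. Incubated 35° C for 24 hours; MIC taken as the minimum inhibitory concentration, measured three times.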

[13] = test system: Pseodomonas aeruginosa PAOI; test: as above; assay type: cell-based; details: MIC after 24 h, read-out: MIC (Gram-nagative) PAO1
Method in brief: as §3

[14] = test system: Streptococcus pneumoniae R6; test: In vitro infectivity assay (MIC), Exp. Ex. 2-1; assay type: cell-based; details: Streptococcus pneumoniae, R6; Gram-positive; microdilution, MIC after 24 h; read-out: MIC S. Pneumoniae R6
[15] = test system: VRE FN-1; test: In vitro infectivity assay (MIC), broth dilution, Exp. Ex. 1-1; assay type: cell-based, enterococci; details: VRE FN-1, Mueller-Hinton broth, 35° C., 24 hours
Procedure: (§4) The antibacterial activities were measured based on broth dilution techniques of international standards (Clinical Laboratory Standards Institute: CLSI). The activities were shown by minimum inhibitory concentrations (MICs) determined by inoculating the above-mentioned strains at a concentration of about 10^5 […] into Mueller-Hinton broth (manufactured by Difco) containing 0.85% NaCl in 96-well microplates and incubating the plates at 35° C. for 24 hours. Measurement was carried out three times.
(§5) The antibacterial activities of the compounds of the present invention against various strains such as methicillin-resistant Staphylococcus aureus (MRSA), vancomycin intermediate-resistant Staphylococcus aureus (VISA), methicillin-sensitive Staphylococcus aureus (MSSA), and vancomycin-resistant enterococci (VRE) were examined. Of the bacteria used in MIC measurement in this test example, clinical bacteria of MRSA (OM481 strain and OM584 strain) were supplied from Okayama University Hospital (Japan). An MRSA strain N315, a vancomycin intermediate-resistant Staphylococcus aureus (VISA) strain Mu50, and a methicillin-sensitive Staphylococcus aureus (MSSA) strain FDA 209P were used as controls. Vancomycin-resistant enterococcus (VRE) strains NCTC 12201 and FN-1 were supplied from the National Institute of Infectious Disease (Japan).

[16] = test system: VRE NCTC12201; test: as above; assay type: cell-based, enterococci; details: VRE NCTC12201, Mueller-Hinton broth, 35° C., 24 hours
Procedure: as §4, §5

[17] = target: T4, DNA gyrase of Escherichia coli (Escherichia coli, UniProt P0AES4+P0AES6); test: DNA gyrase inhibition (supercoiling assay kit), Exp. Ex. 1-2; assay type: biochemical; details: E. coli DNA gyrase supercoiling, relaxed pBR322, 37° C., 30 minutes
T4 construct: purchased John Innes Enterprises #K0001
Procedure: As a kit for measurement of DNA gyrase of Escherichia coli, a product purchased from John Innes Enterprises (Gyrase Supercoiling assay kit #K0001) was used. Relaxed DNA was modified with gyrase into supercoiled DNA, and reaction products were separated by electrophoresis depending on the sizes of the molecular weights to examine anti-gyrase effects (IC50). One unit (1 U) of DNA gyrase and […] of relaxed pBR322 DNA were added to […] of the reaction solution, and the mixture was allowed to react at 37° C. for 30 minutes in the presence of 35 mM Tris-HCl (pH 7.5), 24 mM KCl, 4 mM MgCl2, 2 mM DTT, 1.8 mM spermidine, 1 mM ATP, 6.5% (w/v) glycerol, and 0.1 mg/ml BSA. The reactions were stopped using […] of a reaction stop solution (40% sucrose, 100 mM Tris-HCl (pH 7.5), 1 mM EDTA, 0.5 mg/ml bromophenol blue).

[18] = test system: MRSA N315; test: In vitro infectivity assay (MIC), broth dilution, Exp. Ex. 1-1; assay type: cell-based, Staphylococcus aureus; details: MRSA N315, Mueller-Hinton broth, 35° C., 24 hours
Procedure: as §4, §5

[19] = test system: MRSA OM58; test: as above; assay type: cell-based, Staphylococcus aureus; details: MRSA OM58, Mueller-Hinton broth, 35° C., 24 hours
Procedure: as §4, §5

[20] = test system: VISA Mu50; test: as above; assay type: cell-based, Staphylococcus aureus; details: VISA Mu50, Mueller-Hinton broth, 35° C., 24 hours
Procedure: as §4, §5

[21] = test system: MSSA FDA 209P; test: as above; assay type: cell-based, Staphylococcus aureus; details: MSSA FDA 209P, Mueller-Hinton broth, 35° C., 24 hours
Procedure: as §4, §5

[22] = test system: MRSA OM481; test: as above; assay type: cell-based, Staphylococcus aureus; details: MRSA OM481, Mueller-Hinton broth, 35° C., 24 hours
Procedure: as §4, §5

T2 sequence (P20083 whole entry): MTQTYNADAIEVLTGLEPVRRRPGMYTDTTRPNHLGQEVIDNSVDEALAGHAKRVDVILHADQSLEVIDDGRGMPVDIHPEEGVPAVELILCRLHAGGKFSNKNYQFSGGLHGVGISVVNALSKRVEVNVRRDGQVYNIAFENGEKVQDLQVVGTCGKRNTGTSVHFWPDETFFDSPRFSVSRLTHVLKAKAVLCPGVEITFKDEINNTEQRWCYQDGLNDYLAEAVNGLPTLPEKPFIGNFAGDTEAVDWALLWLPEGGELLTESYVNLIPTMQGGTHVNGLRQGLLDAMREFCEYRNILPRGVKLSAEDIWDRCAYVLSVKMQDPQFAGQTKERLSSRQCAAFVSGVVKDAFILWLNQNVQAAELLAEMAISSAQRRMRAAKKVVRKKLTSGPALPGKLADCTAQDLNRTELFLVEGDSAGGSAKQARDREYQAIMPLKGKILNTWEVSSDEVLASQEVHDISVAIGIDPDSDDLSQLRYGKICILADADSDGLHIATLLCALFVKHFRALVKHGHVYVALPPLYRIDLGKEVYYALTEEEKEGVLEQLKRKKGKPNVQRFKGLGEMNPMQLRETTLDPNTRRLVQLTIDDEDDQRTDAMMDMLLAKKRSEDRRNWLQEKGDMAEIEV
T2 sequence (P0AFI2 whole entry): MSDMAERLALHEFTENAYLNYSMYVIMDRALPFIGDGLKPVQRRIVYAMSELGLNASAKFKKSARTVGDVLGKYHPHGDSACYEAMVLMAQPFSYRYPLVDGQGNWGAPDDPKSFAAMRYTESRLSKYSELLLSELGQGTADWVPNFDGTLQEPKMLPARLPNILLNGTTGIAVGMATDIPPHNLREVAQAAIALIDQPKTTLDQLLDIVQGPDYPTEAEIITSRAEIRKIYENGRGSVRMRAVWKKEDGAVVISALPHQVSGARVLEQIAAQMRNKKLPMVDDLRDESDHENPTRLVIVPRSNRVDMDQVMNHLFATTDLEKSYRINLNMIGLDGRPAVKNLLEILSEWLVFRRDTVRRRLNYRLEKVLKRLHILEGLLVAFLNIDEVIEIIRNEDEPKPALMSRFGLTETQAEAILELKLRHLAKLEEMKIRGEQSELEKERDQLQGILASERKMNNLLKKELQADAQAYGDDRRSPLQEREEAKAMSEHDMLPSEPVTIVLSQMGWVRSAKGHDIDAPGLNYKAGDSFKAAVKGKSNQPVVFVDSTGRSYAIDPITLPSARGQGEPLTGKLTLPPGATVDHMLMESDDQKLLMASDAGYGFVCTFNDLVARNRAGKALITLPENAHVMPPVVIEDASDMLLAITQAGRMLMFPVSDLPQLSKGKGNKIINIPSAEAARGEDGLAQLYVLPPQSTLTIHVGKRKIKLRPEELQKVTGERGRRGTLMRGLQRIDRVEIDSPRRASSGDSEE
T1 sequence (P0AES4 whole entry, one chain of several): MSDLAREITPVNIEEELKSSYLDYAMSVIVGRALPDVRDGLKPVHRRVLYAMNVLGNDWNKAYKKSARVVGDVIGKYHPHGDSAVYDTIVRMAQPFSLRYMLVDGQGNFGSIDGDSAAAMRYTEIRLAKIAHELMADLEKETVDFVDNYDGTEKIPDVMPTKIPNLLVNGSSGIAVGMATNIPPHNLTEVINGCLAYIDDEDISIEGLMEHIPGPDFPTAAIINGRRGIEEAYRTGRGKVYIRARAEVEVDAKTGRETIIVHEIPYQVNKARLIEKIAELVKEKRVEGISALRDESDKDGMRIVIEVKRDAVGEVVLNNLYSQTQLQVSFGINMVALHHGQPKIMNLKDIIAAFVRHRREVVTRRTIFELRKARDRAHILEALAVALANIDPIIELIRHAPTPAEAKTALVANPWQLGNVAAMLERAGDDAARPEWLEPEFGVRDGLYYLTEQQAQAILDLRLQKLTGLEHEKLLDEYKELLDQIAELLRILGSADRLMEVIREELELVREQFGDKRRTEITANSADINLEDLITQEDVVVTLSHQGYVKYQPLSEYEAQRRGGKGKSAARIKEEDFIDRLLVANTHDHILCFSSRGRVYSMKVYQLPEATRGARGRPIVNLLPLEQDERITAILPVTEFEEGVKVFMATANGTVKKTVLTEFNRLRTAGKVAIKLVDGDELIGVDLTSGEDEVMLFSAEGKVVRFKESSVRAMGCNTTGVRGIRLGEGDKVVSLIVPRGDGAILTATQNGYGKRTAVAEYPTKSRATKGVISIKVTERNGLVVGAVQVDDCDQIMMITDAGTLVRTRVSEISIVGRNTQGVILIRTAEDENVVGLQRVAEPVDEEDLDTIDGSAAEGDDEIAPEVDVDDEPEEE
T4 sequence (P0AES4 whole entry, one chain of several): as above
T3 sequence (P0C1U9 whole entry): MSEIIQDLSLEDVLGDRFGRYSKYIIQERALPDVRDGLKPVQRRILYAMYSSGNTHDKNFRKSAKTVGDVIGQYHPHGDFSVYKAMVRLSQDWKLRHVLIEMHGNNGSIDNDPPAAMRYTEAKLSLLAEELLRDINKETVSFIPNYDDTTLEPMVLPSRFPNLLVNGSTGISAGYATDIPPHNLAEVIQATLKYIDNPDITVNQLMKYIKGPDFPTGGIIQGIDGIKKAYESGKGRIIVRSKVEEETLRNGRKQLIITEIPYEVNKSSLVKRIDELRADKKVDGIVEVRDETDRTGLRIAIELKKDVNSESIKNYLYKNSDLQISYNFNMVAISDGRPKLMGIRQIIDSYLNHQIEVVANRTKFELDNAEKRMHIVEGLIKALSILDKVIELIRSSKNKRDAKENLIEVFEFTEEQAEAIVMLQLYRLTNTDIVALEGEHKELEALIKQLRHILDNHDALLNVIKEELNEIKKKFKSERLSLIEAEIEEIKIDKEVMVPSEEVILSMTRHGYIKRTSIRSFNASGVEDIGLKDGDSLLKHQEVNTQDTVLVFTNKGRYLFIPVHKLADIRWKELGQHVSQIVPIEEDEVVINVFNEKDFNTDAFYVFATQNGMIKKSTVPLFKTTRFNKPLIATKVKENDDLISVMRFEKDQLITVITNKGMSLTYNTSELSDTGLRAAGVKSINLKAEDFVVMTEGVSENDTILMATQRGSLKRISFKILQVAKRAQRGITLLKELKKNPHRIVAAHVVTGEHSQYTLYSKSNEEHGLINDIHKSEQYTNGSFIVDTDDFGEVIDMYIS
T3 sequence (P0C1S7 whole entry): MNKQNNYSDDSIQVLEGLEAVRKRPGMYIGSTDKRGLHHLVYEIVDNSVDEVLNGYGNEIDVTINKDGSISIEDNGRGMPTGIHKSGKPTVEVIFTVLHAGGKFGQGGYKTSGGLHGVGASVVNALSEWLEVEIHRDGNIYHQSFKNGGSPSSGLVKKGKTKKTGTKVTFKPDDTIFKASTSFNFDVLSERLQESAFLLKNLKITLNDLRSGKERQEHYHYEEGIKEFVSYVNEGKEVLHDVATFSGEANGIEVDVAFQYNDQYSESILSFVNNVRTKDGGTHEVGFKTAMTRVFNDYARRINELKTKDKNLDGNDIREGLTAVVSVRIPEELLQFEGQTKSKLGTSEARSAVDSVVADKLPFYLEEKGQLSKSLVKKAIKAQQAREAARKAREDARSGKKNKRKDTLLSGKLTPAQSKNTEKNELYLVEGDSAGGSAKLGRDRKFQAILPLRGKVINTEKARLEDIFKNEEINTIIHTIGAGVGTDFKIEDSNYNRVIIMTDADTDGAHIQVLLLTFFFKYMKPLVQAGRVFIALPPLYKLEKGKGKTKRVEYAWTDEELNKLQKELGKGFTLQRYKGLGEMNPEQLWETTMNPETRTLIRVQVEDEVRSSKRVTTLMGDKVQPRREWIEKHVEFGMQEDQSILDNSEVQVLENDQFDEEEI

## Cc1ccc(CCC(=O)c2cc(O)c3c(=O)c(C(=O)CCc4ccc(C)cc4)c(-c4ccc(O)c(O)c4)oc3c2)cc1 [Compound 2a, 2-(3′,4′-Dihydroxyphenyl)-5-hydroxy-3,7-di-(4-methylphenylpropanoyl)-4H-chromen-4-one]
other
  melting point: 105 to 107 °C

## O=C(CCc1ccc(F)cc1)c1cc(O)c2c(=O)c(C(=O)CCc3ccc(F)cc3)c(-c3ccc(O)c(O)c3)oc2c1 [Compound 2b, 2-(3′,4′-Dihydroxyphenyl)-5-hydroxy-3,7-di-(4-fluorophenylpropanoyl)-4H-chromen-4-one]
other
  melting point: 119 to 121 °C

## O=c1c([C@@H]2O[C@H](CO)[C@H](O)[C@H](O)[C@H]2O)c(-c2ccc(O)c(O)c2)oc2cc([C@@H]3O[C@H](CO)[C@H](O)[C@H](O)[C@H]3O)cc(O)c12 [Compound 6, 2-(3′,4′-Dihydroxyphenyl)-5-hydroxy-3,7-di-β-D-galactosyl-4H-chromen-4-one]
other
  melting point: 215 to 217 °C

## CCOc1ccc(C(=O)OC[C@H]2O[C@@H](Oc3c(-c4ccc(O)c(O)c4)oc4cc(O)cc(O)c4c3=O)[C@H](OC(=O)c3ccc(OCC)cc3)[C@@H](O)[C@H]2O)cc1 [Compound 14a, 2-(3″,4″-Dihydroxyphenyl)-5,7-dihydroxy-3-β-D-[2″,6″-di-O-(4-ethoxybenzoyl)]galactosyl-4H-chromen-4-one]
[1]
  MIC: 16 µg/mL (≈ 21 µM)
[2]
  MIC: 4 µg/mL (≈ 5.26 µM)
[3]
  MIC: 4 µg/mL (≈ 5.26 µM)
[4]
  MIC: 4 µg/mL (≈ 5.26 µM)
[5]
  MIC: 8 µg/mL (≈ 10.5 µM)
[6]
  MIC: 4 µg/mL (≈ 5.26 µM)
[7]
  MIC: 8 µg/mL (≈ 10.5 µM)
[8]
  MIC: 8 µg/mL (≈ 10.5 µM)
[9]
  IC50: 0.43 µM
[10]
  IC50: 7.33 µM
[11]
  IC50: 1.78 µM
[12]
  MIC: > 128 µg/mL
[13]
  MIC: > 128 µg/mL
[14]
  MIC: 4 µg/mL (≈ 5.26 µM)
other
  melting point: 108 to 110 °C

## CCCc1ccc(C(=O)OC[C@H]2O[C@@H](Oc3c(-c4ccc(O)c(O)c4)oc4cc(O)cc(O)c4c3=O)[C@H](OC(=O)c3ccc(CCC)cc3)[C@@H](O)[C@H]2O)cc1 [Compound 14b]
[1]
  MIC: 16 µg/mL (≈ 21.1 µM)
[2]
  MIC: 4 µg/mL (≈ 5.29 µM)
[3]
  MIC: 4 µg/mL (≈ 5.29 µM)
[4]
  MIC: 2 µg/mL (≈ 2.64 µM)
[5]
  MIC: 2 µg/mL (≈ 2.64 µM)
[6]
  MIC: 4 µg/mL (≈ 5.29 µM)
[7]
  MIC: 4 µg/mL (≈ 5.29 µM)
[8]
  MIC: 8 µg/mL (≈ 10.6 µM)
[9]
  IC50: 0.77 µM
[10]
  IC50: 8.89 µM
[11]
  IC50: 1.93 µM
[12]
  MIC: > 128 µg/mL
[13]
  MIC: > 128 µg/mL
[14]
  MIC: 2 µg/mL (≈ 2.64 µM)
other
  melting point: 150 to 151 °C

## O=C(O[C@H]1[C@H](Oc2c(-c3ccc(O)c(O)c3)oc3cc(O)cc(O)c3c2=O)O[C@H](CO)[C@@H](O)[C@@H]1OC(=O)c1ccc(F)cc1)c1ccc(F)cc1 [Compound 15g, 2-(3′,4′-Dihydroxy)-5,7-dihydroxy-3-β-D-(2″,3″-di-p-flurobenzoyloxy)glucosyl-4H-chromen-4-one]
[15]
  MIC VRE FN-1: 8 µg/mL (≈ 11.3 µM)
[16]
  MIC VRE NCTC 12201: 8 µg/mL (≈ 11.3 µM)
[17]
  Gyrase inhibitory activity IC50: 4.25 µg/mL
[18]
  MIC MRSA N315: 2 µg/mL (≈ 2.82 µM)
[19]
  MIC MRSA OM58: 16 µg/mL (≈ 22.6 µM)
[20]
  MIC VISA Mu50: 2 µg/mL (≈ 2.82 µM)
[21]
  MIC MSS 209P: 2 µg/mL (≈ 2.82 µM)
[22]
  MIC MRSA OM481: 16 µg/mL (≈ 22.6 µM)

## O=c1c(O[C@@H]2O[C@H](CO)[C@@H](O)[C@H](O)[C@H]2O)c(-c2ccc(O)c(O)c2)oc2cc(O)cc(O)c12 [Compound 17, 2-(3′4′-Dihydroxy)-5,7-dihydroxy-3-β-D-glucosyl-4H-chromen-4-one]
[15]; Enterococcus, read-out: MIC VRE FN-1
  MIC: > 128 µg/mL
[16]; Enterococcus, read-out: MIC VRE NCTC12201
  MIC: > 128 µg/mL
[17]; read-out: Gyrase inhibitory activity IC50 (converted)
  IC50: > 25.8 µM
[18]; Staphylococcus aureus, read-out: MIC MRSA N315
  MIC: > 128 µg/mL
[19]; Staphylococcus aureus, read-out: MIC MRSA OM58
  MIC: > 128 µg/mL
[20]; Staphylococcus aureus, read-out: MIC VISA Mu50
  MIC: > 128 µg/mL
[21]; Staphylococcus aureus, read-out: MIC MSS 209P
  MIC: > 128 µg/mL
[22]; Staphylococcus aureus, read-out: MIC MRSA OM481
  MIC: > 128 µg/mL
